Values joined by “and” are separate entries in the source; they are usually repeats but may differ in a detail not shown here. Equal values may be shown once. Read-outs that look alike come from different tables or passages of the source.

Series [1] has as its system HCT116 p97K512N. The experiment in a line: Cellular viability, resistant HCT116 p97K512N. To be noted: Homo sapiens, HCT-116, Table S3, four replicates. It counts as cell-based. As to the method: (§1) Drug-resistant HCT116 cell lines were derived using the method previously described and with certain modifications[70],[99]. […] Drug-resistant clones were transferred into a new plate for passaging, and subsequently used to study drug resistance and identify the p97 mutations.
(§2) Anti-proliferative activity was measured using CellTiter Glo® Luminescent Cell Viability Assay (Promega G7572) according to the manufacturer’s procedure as described. RMPI1640 containing 5% FBS and 1% penicillin-streptomycin was used as a cell viability medium. A standard curve of HCT116 was generated for finding the linear relationship between the relative luminescence unit and the number of viable cells. […] 24 h after seeding, 8 μL of media containing 5% DMSO was added to each well, and the plate was incubated for an additional 48 h. To test the anti-proliferative activity of p97 inhibitors, we seeded HCT116 at 750 cells per well according to the linear range. […] After 48 h of treatment, cell viability was measured by adding CellTiter Glo reagent and reading the signal with a BioTek Synergy Neo plate reader (Agilent, Santa Clara, CA). The IC50 values were calculated from four replicates using the percentage of growth of treated cells versus the DMSO control. The results were analyzed using GraphPad Prism 7.0 (GraphPad, Boston, MA).

In series [2] the test system is HCT116 p97P510S. Put plainly: Cellular viability, resistant HCT116 p97P510S. It counts as cell-based. Conditions: Homo sapiens, HCT-116, Table S3, four replicates. Here is the method:
as §1, §2

Series [3] has as its system Ub^G76V-GFP/ODD-Luc HeLa cells. Put plainly: Cellular Ub^G76V-GFP accumulation assay. It counts as cell-based. To be noted: Homo sapiens, HeLa; Table S3; four replicates; read-out: UbG76V-GFP EC50. Here is the method: ImageXpress high-content confocal microscope (Molecular Devices, LLC., San Jose, CA) was used to image cells at GFP channel. The percentage of Ub^G76V-GFP accumulation (%Acc) is calculated using the following formula: […]
The IC50 values were calculated by fitting the %Acc from four replicates with various concentrations of compounds using GraphPad Prism 7.0 (GraphPad, Boston, MA).

Series [4] deals with HCT116 p97F618S. Put plainly: Cellular viability, resistant HCT116 p97F618S. It counts as cell-based. To be noted: Homo sapiens, HCT-116, Table S3, four replicates. Here is the method:
as §1, §2

Series [5] deals with HCT116 p97WT. Put plainly: HCT116 proliferation assay (CellTiter Glo). Also noted: key to cellular viability of HCT116: % of DMSO control viability. In kind it is cell-based. As to the method: as §2
In general terms: In ATP-based viability assays light output follows the ATP content of the culture.

Series [6] deals with T1, wild-type p97 (p97^WT) (Homo sapiens, UniProt P55072).
T1 construct: made in house
The experiment in a line: p97 ATPase activity (Biomol Green), wild-type p97. In kind it is biochemical. As to the method: (§3) Results were calculated from 6 replicates using GraphPad Prism 7.0 (GraphPad Software, Boston, MA).

For series [7], the target named is T2, p97^N616F (Homo sapiens, UniProt P55072, N616F).
T2 construct: made in house
Put plainly: p97 ATPase activity (Biomol Green), N616F mutant. In kind it is biochemical. As to the method:
as §3

The target in series [8] is T3, p97^P510S (Homo sapiens, UniProt P55072, P510S).
T3 construct: made in house
The experiment in a line: p97 ATPase activity (Biomol Green), P510S mutant. It counts as biochemical. As to the method: as §3

Series [9] deals with T4, p97^K512N (Homo sapiens, UniProt P55072, K512N).
T4 construct: made in house
Put plainly: p97 ATPase activity (Biomol Green), K512N mutant. In kind it is biochemical. As to the method: as §3

Series [10] concerns the target T5, p97^R155H (Homo sapiens, UniProt P55072, R155H).
T5 construct: enabling us to acquire high-resolution biomolecular structures of full-length p97; made in house
The experiment in a line: p97 ATPase activity (Biomol Green), R155H mutant. It counts as biochemical. As to the method:
as §3

The target in series [11] is T6, p97^F618S (Homo sapiens, UniProt P55072, F618S).
T6 construct: made in house
The experiment in a line: p97 ATPase activity (Biomol Green), F618S mutant. It counts as biochemical. Here is the method:
as §3

Where [12] appears, read: Homo sapiens, HCT-116, Table S6, 48-hour treatment, read-out: Cell viability of HCT116 IC50.
Where [13] appears, read: Homo sapiens, HCT-116, Table S3, cellular viability, four replicates, read-out: IC50 HCT116 p97WT.

T6 sequence (P55072 whole entry F618S): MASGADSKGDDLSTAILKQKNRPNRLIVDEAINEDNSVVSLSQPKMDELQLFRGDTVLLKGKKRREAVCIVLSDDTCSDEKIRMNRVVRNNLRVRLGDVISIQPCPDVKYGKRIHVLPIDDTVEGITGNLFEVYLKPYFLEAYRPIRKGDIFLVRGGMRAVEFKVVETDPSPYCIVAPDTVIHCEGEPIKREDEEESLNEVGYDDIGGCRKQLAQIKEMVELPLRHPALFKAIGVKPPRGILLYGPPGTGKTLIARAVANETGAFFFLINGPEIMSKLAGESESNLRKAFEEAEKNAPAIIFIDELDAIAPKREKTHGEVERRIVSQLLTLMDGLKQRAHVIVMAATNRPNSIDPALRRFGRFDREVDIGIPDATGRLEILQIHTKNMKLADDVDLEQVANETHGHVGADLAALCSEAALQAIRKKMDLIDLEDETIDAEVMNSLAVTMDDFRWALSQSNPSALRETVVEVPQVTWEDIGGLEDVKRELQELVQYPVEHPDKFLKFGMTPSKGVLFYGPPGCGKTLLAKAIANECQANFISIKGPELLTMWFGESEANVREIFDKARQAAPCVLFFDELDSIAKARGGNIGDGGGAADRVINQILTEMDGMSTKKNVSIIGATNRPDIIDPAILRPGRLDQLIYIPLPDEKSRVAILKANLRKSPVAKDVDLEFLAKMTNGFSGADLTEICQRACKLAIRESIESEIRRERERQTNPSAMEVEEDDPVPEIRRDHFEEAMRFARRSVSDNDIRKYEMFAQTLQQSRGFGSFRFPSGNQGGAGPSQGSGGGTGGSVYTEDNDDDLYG
T1 sequence (P55072 whole entry): as the sequence (P55072 whole entry F618S) above, with S618F counted along it
T2 sequence (P55072 whole entry N616F): as the sequence (P55072 whole entry F618S) above, with N616F, S618F counted along it
T3 sequence (P55072 whole entry P510S): as the sequence (P55072 whole entry F618S) above, with P510S, S618F counted along it
T4 sequence (P55072 whole entry K512N): as the sequence (P55072 whole entry F618S) above, with K512N, S618F counted along it
T5 sequence (P55072 whole entry R155H): as the sequence (P55072 whole entry F618S) above, with R155H, S618F counted along it

In the case of `Cc1cc2c(C(N)=O)cccc2n1-c1nc2c(c(NCc3ccccc3)n1)COCC2` [CB-5083, 1-[4-(benzylamino)-5H,7H,8H-pyrano[3d,[4]]pyrimidin-2-yl]-2-methyl-1H-indole-4-carboxamide, reference compound], the IC50 (usually the point on the concentration scale where inhibition reaches its midpoint) in series [1] was 500 nM; in series [2], 1000 nM; in series [4], 600 nM; in series [5] (Homo sapiens, HCT-116, read-out: IC50 HCT116 p97WT), 400 nM; in [5] (setting [12]), 344 nM. Further, the EC50 (commonly the concentration at which the effect is half-maximal) in series [3] turned out to be 430 nM.

For the compound `Cc1cc(OCc2nnc(SC3CCCC3)n2-c2cccnc2)ccc1-c1ccc(S(C)(=O)=O)cc1` [NMS-873, reference compound], the “% ATPase activity” value in series [6] (inhibitor 0.000905 µM) amounted to 106%; in series [6] (inhibitor 0.002716 µM) it was 98%; in [6] (inhibitor 0.008148 µM) it was 88%; in series [6] (inhibitor 0.024444 µM), 55%; in [6] (inhibitor 0.073333 µM) it was 28%; in series [6] (inhibitor 0.220000 µM), 14%. Further, the IC50 was found to be 9200 nM in series [2] and 2000 nM in series [5] (setting [13]). The EC50 in series [3] worked out at 2000 nM.

`CN1CCC(NC(=O)OCC#Cc2c(F)cc(OCc3nnc(S[C@H]4C=CCCC4)n3-c3cccnc3)cc2F)CC1` [NSC799462]: the “increase of IC50 versus p97^WT, N616F” value in series [7] was found to be 121 fold. For the same compound, the IC50 in series [7] (200 μM ATP, six replicates) amounted to 1810 nM; in series [6] (200 μM ATP, six replicates), 15 nM; in [8] (200 μM ATP, six replicates) it was 910 nM; in [9] (200 μM ATP, six replicates), 45 nM; in [10] (200 μM ATP, six replicates) it was 11 nM; in series [11] (200 μM ATP, six replicates), 460 nM. The IC50 in series [2] was 6900 nM; in series [5] (setting [13]), 390 nM; in series [5] (setting [12]), 296 nM. The “Ratio of IC50 values for mutants to IC50 values for wild-type p97, N616F” value in series [7] (N616F/WT) is 121. In addition, the “Ratio of IC50 values for mutants to IC50 values for wild-type p97, WT” value in [6] (WT/WT reference) amounted to 1. Besides, the “% ATPase activity” value in series [6] (inhibitor 0.000905 µM) came out at 98%; in series [6] (inhibitor 0.002716 µM) it was 90%; in series [6] (inhibitor 0.008148 µM) it was 67%; in series [6] (inhibitor 0.024444 µM), 27%; in series [6] (inhibitor 0.073333 µM) it was 15%; in series [6] (inhibitor 0.220000 µM), 16%. Moreover, the “increase of IC50 versus p97^WT, P510S” value in series [8] is listed as 61 fold. The “Ratio of IC50 values for mutants to IC50 values for wild-type p97, P510S” value in [8] (P510S/WT) came to 61. Further, the “increase of IC50 versus p97^WT, K512N” value in [9] amounted to 3 fold. The “Ratio of IC50 values for mutants to IC50 values for wild-type p97, K512N” value in series [9] (K512N/WT) is on record as 3. For the same compound, the “Ratio of IC50 values for mutants to IC50 values for wild-type p97, R155H” value in series [10] (R155H/WT) is given as 0.7. The “increase of IC50 versus p97^WT, F618S” value in series [11] is listed as 31 fold. Moreover, in series [11] (F618S/WT), the “Ratio of IC50 values for mutants to IC50 values for wild-type p97, F618S” value was 31. In [3], the EC50 was 230 nM. The “cellular viability of HCT116” value is 105 (2×) and 108 in [5] (0.06 µM, single replicates); 93 (2×) and 96 in series [5] (0.17 µM, single replicates); 4 in series [5] (1.60 µM, single replicates, 1.6 µM); 1 in series [5] (42.1 µM, single replicates). Also, in series [5] (Homo sapiens, HCT-116, 0.06 µM, single replicates, read-out: cellular viability of HCT116), the viability – broadly, a per cent measure of how many cells are alive, often set against a control – at 0.06 µM came out at 100%. Further, in [5] (Homo sapiens, HCT-116, 0.17 µM, single replicates, read-out: cellular viability of HCT116), the viability at 0.17 µM was found to be 94%. Also, in [5] (Homo sapiens, HCT-116, 0.52 µM, single replicates, read-out: cellular viability of HCT116), the viability at 0.52 µM was determined as 6%. Also, in series [5] (Homo sapiens, HCT-116, 1.60 µM, single replicates, read-out: cellular viability of HCT116), the viability at 1.6 µM is 5%. The viability at 4.7 µM in series [5] (Homo sapiens, HCT-116, 4.70 µM, single replicates, read-out: cellular viability of HCT116) was determined as 5%. In [5] (Homo sapiens, HCT-116, 14.0 µM, single replicates, read-out: cellular viability of HCT116), the viability at 14 µM stood at 5%. Moreover, in series [5] (Homo sapiens, HCT-116, 42.1 µM, single replicates, read-out: cellular viability of HCT116), the viability at 42.1 µM was 2%.
